Data from paper PMC7717579, “Phosphoregulation of HORMA domain protein HIM-3 promotes asymmetric synaptonemal complex disassembly in meiotic prophase in Caenorhabditis elegans” (PLoS Genetics, 2020).
Non-standard residues stand in square brackets, D forms with d. Residues, ends and D or L forms follow the SMILES beside them. *: point of attachment. FITC = O=C1OC2(c3ccc(O)cc3Oc3cc(O)ccc32)c2ccc(NC(=S)*)cc21; pY = N[C@@H](Cc1ccc(OP(=O)(O)O)cc1)C(=O)O; pS = N[C@@H](COP(=O)(O)O)C(=O)O; Ahx = NCCCCCC(=O)O

Target: T1, HTP-2 protein (full length) (Caenorhabditis elegans, UniProt Q95XC8)
T1 sequence (Q95XC8 1-352): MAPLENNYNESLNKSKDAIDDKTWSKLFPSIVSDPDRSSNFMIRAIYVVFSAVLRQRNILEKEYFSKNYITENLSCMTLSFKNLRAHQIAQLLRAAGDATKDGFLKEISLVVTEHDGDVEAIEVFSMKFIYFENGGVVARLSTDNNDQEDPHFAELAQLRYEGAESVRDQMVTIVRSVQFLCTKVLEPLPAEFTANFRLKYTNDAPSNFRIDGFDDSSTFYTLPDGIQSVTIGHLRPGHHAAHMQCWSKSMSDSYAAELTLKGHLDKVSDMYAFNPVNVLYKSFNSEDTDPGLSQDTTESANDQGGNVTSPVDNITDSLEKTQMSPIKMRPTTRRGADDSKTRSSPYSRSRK
Test: Fluorescence polarization (FP) peptide binding assay
Settings: for Kd (HTP-2 binding): FP, 50 nM FITC-tagged HIM-3 closure motif peptide, various concentrations of bacterially purified full-length HTP-2, 20 mM Tris pH 7.5, 300 mM NaCl, 10% glycerol, 1 mM DTT, 0.1% NP-40, 1 hour at room temperature, single-site binding model, triplicated measurements
From the text: To understand regulation of meiotic proteins by post-translational modification, we previously carried out mass spectrometry to identify phosphorylated proteins in C. elegans adult hermaphrodites. […] We detected phosphopeptides containing Ser282 either singly or in combination with Ser274, Ser277, or Tyr279, and the most commonly-observed peptide contained doubly-phosphorylated Ser277/Ser282 (Fig 1A and S1 Table). Among the three most C-terminal phosphoresidues, which reside within the conserved closure motif, Tyr279 and Ser or Thr at position 282 are conserved features among nematode HIM-3 orthologs (Fig 1A). […] More recent studies further identified this C-terminus region containing Ser375 to be the closure motif, able to be bound by the HORMA domain of HORMAD1 itself and HORMAD2 [27, 34]. While phosphorylation at the closure motif is conserved between C. elegans HIM-3 and mouse HORMAD1 (S1 Fig), the function is not understood. Since other HORMA family proteins, HTP-1 and -2, are known to bind the HIM-3 closure motif in C. elegans, we first examined if phosphorylation affects HTP-1/2 binding to HIM-3 in vitro. A previous study has shown that both HTP-1 and -2 proteins bind unmodified HIM-3 peptides containing the closure motif in a fluorescence polarization (FP) peptide binding assay. Examination of the crystal structure resolved by the same study led us to predict that phosphorylation at Ser282 would likely interfere with HTP-1/2 binding (Fig 1B). We conducted a similar FP peptide binding assay using purified HTP-2 and fluorescently tagged HIM-3 closure motif peptides containing various modifications (Fig 1C).
Fig 1 Phosphorylation at the HIM-3 closure motif prevents HTP-1/2 binding in vitro. A, top: Schematic diagram of HIM-3, showing the HORMA domain (magenta) and phosphorylation sites identified by mass spectrometry in red. The conserved closure motif is underlined. bottom: Conservation of the Tyr and Ser/Thr, highlighted in orange, in the closure motif in eight Caenorhabditis species. B, left: Diagram of hierarchical binding of HTP-1, 2, 3 and HIM-3 from. center, diagram of possible multivalent binding modes of the axial element, based on. right, Interactions between the HIM-3 closure motif (magenta) and the HTP-2 (grey) HORMA domain shown in PDB structure 4TZL [27]. C, Fluorescence polarization peptide binding assay using bacterially purified HTP-2 protein (full length) and fluorescently tagged HIM-3 peptides with indicated phosphorylation or Ala substitution. Wild type means HIM-3 peptides with no phosphorylation. Phosphorylation at Ser282 inhibits HTP-2 binding in vitro. Error bars are calculated as the SD from triplicated measurements. […]
Fluorescein (FITC) conjugated peptides for the FP assay were synthesized by either Scrum Inc. or Eurofins Inc. as shown in S2 Table. […] For the fluorescence assay, synthesized peptides were first resuspended in DMSO, then diluted into binding buffer (20 mM Tris pH 7.5, 300 mM NaCl, 10% glycerol, 1 mM DTT, 0.1% NP-40). Reactions of 50 μl total volume containing 50 nM peptide and various concentrations of HTP-2 proteins were incubated for 1 hour at room temperature, then fluorescence polarization was measured in 384-well plates using a TECAN Infinite M1000 PRO fluorescence plate reader. Binding data were analyzed with Graphpad Prism version 6.0h for Macintosh (GraphPad Software, La Jolla California USA) using a single-site binding model.

Q: How did the “Kd (HTP-2 binding)” value turn out when “{FITC}-[Ahx]RISRDSP[pY]GL[pS]QGITK-OH [Y279phos_S282phos, FITC-tagged HIM-3 closure motif peptide phosphorylated at Tyr279 and Ser282]” was run?
A: not significant binding

Q: For “{FITC}-[Ahx]RISRDSPYGL[pS]QGITK-OH [S282phos, FITC-tagged HIM-3 closure motif peptide phosphorylated at Ser282]”, which “Kd (HTP-2 binding)” value is on record?
A: not significant binding

Q: CC[C@H](C)[C@H](NC(=O)CNC(=O)[C@H](CCC(N)=O)NC(=O)[C@H](CO)NC(=O)[C@H](CC(C)C)NC(=O)CNC(=O)[C@H](Cc1ccc(O)cc1)NC(=O)[C@@H]1CCCN1C(=O)[C@H](CO)NC(=O)[C@H](CC(=O)O)NC(=O)[C@H](CCCNC(=N)N)NC(=O)[C@H](CO)NC(=O)[C@@H](NC(=O)[C@H](CCCNC(=N)N)NC(=O)CCCCCNC(=S)Nc1ccc2c(c1)C(=O)OC21c2ccc(O)cc2Oc2cc(O)ccc21)[C@@H](C)CC)C(=O)N[C@H](C(=O)N[C@@H](CCCCN)C(=O)O)[C@@H](C)O [unphosphorylated peptides] ({FITC-Ahx}-RISRDSPYGLSQGITK-OH) was tested. Which Kd did it give?
A: 5.8 µM

Q: CC[C@H](C)[C@H](NC(=O)CNC(=O)[C@H](CCC(N)=O)NC(=O)[C@H](C)NC(=O)[C@H](CC(C)C)NC(=O)CNC(=O)[C@H](Cc1ccc(O)cc1)NC(=O)[C@@H]1CCCN1C(=O)[C@H](CO)NC(=O)[C@H](CC(=O)O)NC(=O)[C@H](CCCNC(=N)N)NC(=O)[C@H](CO)NC(=O)[C@@H](NC(=O)[C@H](CCCNC(=N)N)NC(=O)CCCCCNC(=S)Nc1ccc2c(c1)C(=O)OC21c2ccc(O)cc2Oc2cc(O)ccc21)[C@@H](C)CC)C(=O)N[C@H](C(=O)N[C@@H](CCCCN)C(=O)O)[C@@H](C)O [S282A] ({FITC-Ahx}-RISRDSPYGLAQGITK-OH) was tested. Which Kd did it give?
A: 11.3 µM

Q: CC[C@H](C)[C@H](NC(=O)CNC(=O)[C@H](CCC(N)=O)NC(=O)[C@H](CO)NC(=O)[C@H](CC(C)C)NC(=O)CNC(=O)[C@H](Cc1ccc(OP(=O)(O)O)cc1)NC(=O)[C@@H]1CCCN1C(=O)[C@H](CO)NC(=O)[C@H](CC(=O)O)NC(=O)[C@H](CCCNC(=N)N)NC(=O)[C@H](CO)NC(=O)[C@@H](NC(=O)[C@H](CCCNC(=N)N)NC(=O)CCCCCNC(=S)Nc1ccc2c(c1)C(=O)OC21c2ccc(O)cc2Oc2cc(O)ccc21)[C@@H](C)CC)C(=O)N[C@H](C(=O)N[C@@H](CCCCN)C(=O)O)[C@@H](C)O [Y279phos] ({FITC-Ahx}-RISRDSP[pY]GLSQGITK-OH) was tested. Which Kd did it give?
A: 16.1 µM
